ChEMBL document CHEMBL1201862, “PubChem BioAssay data set” (2004)
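A five-concentration, 48-hour dose response in 96-well plates underlies each endpoint, interpolated linearly between surrounding concentrations. At the GI50, growth is halved.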 The source made the active and inactive calls. Cut-off read from the data, not from the text of the source: active = GI50 up to about 1.1 µM and inactive = higher.

How the values were obtained:
Test in all cases: NCI-60 cell line screen, 48 h
HL-60 = test system: HL-60
EKVX = test system: EKVX
K562 = test system: K562
SF-295 = test system: SF-295
TK-10 = test system: TK-10
DLD-1 = test system: DLD-1
ACHN = test system: ACHN
HOP-18 = test system: HOP-18
MOLT-4 = test system: MOLT-4
NCI-H23 = test system: NCI-H23
OVCAR-8 = test system: OVCAR-8
OVCAR-4 = test system: OVCAR-4
OVCAR-5 = test system: OVCAR-5
U-251 = test system: U-251
A549 = test system: A549
SNB-75 = test system: SNB-75
SF-268 = test system: SF-268
XF498 = test system: XF498
KM-20L2 = test system: KM-20L2
KM12 = test system: KM12
HT-29 = test system: HT-29
CCRF-CEM = test system: CCRF-CEM
DMS-273 = test system: DMS-273
M19-MEL = test system: M19-MEL
SN12C = test system: SN12C
HOP-62 = test system: HOP-62
SK-MEL-5 = test system: SK-MEL-5
UACC-257 = test system: UACC-257
HCC 2998 = test system: HCC 2998
SR = test system: SR
SF-539 = test system: SF-539
NCI-H226 = test system: NCI-H226
SK-MEL-2 = test system: SK-MEL-2
HCT-116 = test system: HCT-116
UACC-62 = test system: UACC-62
IGROV-1 = test system: IGROV-1
LXFL 529 = test system: LXFL 529
SK-MEL-28 = test system: SK-MEL-28
786-0 = test system: 786-0
SK-OV-3 = test system: SK-OV-3
RPMI-8226 = test system: RPMI-8226
OVCAR-3 = test system: OVCAR-3
CAKI-1 = test system: CAKI-1
SW-620 = test system: SW-620
M14 = test system: M14
SNB-19 = test system: SNB-19
NCI-H460 = test system: NCI-H460
SNB-78 = test system: SNB-78
UO-31 = test system: UO-31
A498 = test system: A498
LOX IMVI = test system: LOX IMVI
NCI-H522 = test system: NCI-H522
Malme-3M = test system: Malme-3M
RXF 393 = test system: RXF 393
HOP-92 = test system: HOP-92
HCT-15 = test system: HCT-15
COLO 205 = test system: COLO 205

C/C(=N\NC(=O)c1ccccc1O)C1=CNc2ccccc2S1
GI50 (HL-60): 3.54 µM (inactive)
GI50 (EKVX): 15.3 µM (inactive)
GI50 (K562): 3.75 µM (inactive)
GI50 (SF-295): 4.01 µM (inactive)
GI50 (TK-10): 5.57 µM (inactive)
GI50 (DLD-1): 4.23 µM (inactive)
GI50 (ACHN): 4.56 µM (inactive)
GI50 (HOP-18): 6.25 µM (inactive)
GI50 (MOLT-4): 2.08 µM (inactive)
GI50 (NCI-H23): 3.6 µM (inactive)
GI50 (OVCAR-8): 3.7 µM (inactive)
GI50 (OVCAR-4): 5.85 µM (inactive)
GI50 (OVCAR-5): 3.18 µM (inactive)
GI50 (U-251): 5.87 µM (inactive)
GI50 (A549): 3.63 µM (inactive)
GI50 (SNB-75): 8.2 µM (inactive)
GI50 (SF-268): 3.61 µM (inactive)
GI50 (XF498): 3.99 µM (inactive)
GI50 (KM-20L2): 15.7 µM (inactive)
GI50 (KM12): 3.94 µM (inactive)
GI50 (HT-29): 7.85 µM (inactive)
GI50 (CCRF-CEM): 3.35 µM (inactive)
GI50 (DMS-273): 3.1 µM (inactive)
GI50 (M19-MEL): 7.53 µM (inactive)
GI50 (SN12C): 4.05 µM (inactive)
GI50 (HOP-62): 4.59 µM (inactive)
GI50 (SK-MEL-5): 6.89 µM (inactive)
GI50 (UACC-257): 3.1 µM (inactive)
GI50 (HCC 2998): 2.98 µM (inactive)
GI50 (SR): 3.82 µM (inactive)
GI50 (SF-539): 2.4 µM (inactive)
GI50 (NCI-H226): 4.35 µM (inactive)
GI50 (SK-MEL-2): 2.15 µM (inactive)
GI50 (HCT-116): 3.66 µM (inactive)
GI50 (UACC-62): 2.44 µM (inactive)
GI50 (IGROV-1): 5.92 µM (inactive)
GI50 (LXFL 529): 0.875 µM (active)
GI50 (SK-MEL-28): 9.48 µM (inactive)
GI50 (786-0): 4.71 µM (inactive)
GI50 (SK-OV-3): 15.6 µM (inactive)
GI50 (RPMI-8226): 4.9 µM (inactive)
GI50 (OVCAR-3): 3.01 µM (inactive)
GI50 (CAKI-1): 6.38 µM (inactive)
GI50 (SW-620): 3.65 µM (inactive)
GI50 (M14): 6.65 µM (inactive)
GI50 (SNB-19): 5.56 µM (inactive)
GI50 (NCI-H460): 4 µM (inactive)
GI50 (SNB-78): 7.94 µM (inactive)
GI50 (UO-31): 2.14 µM (inactive)
GI50 (A498): 3.8 µM (inactive)
GI50 (LOX IMVI): 3.3 µM (inactive)
GI50 (NCI-H522): 3.34 µM (inactive)
GI50 (Malme-3M): 3.1 µM (inactive)

O=C(Nc1ccc(S(=O)(=O)N[C@@H](C(=O)O)c2ccccc2)cc1)c1ccc(F)cc1
GI50 (EKVX): > 100 µM (inactive)
GI50 (K562): > 100 µM (inactive)
GI50 (SF-295): > 100 µM (inactive)
GI50 (TK-10): > 100 µM (inactive)
GI50 (DLD-1): > 100 µM (inactive)
GI50 (ACHN): > 100 µM (inactive)
GI50 (RXF 393): > 100 µM (inactive)
GI50 (HOP-18): > 100 µM (inactive)
GI50 (MOLT-4): > 100 µM (inactive)
GI50 (NCI-H23): > 100 µM (inactive)
GI50 (OVCAR-8): > 100 µM (inactive)
GI50 (OVCAR-4): > 100 µM (inactive)
GI50 (OVCAR-5): > 100 µM (inactive)
GI50 (U-251): > 100 µM (inactive)
GI50 (A549): > 100 µM (inactive)
GI50 (SNB-75): > 100 µM (inactive)
GI50 (SF-268): > 100 µM (inactive)
GI50 (XF498): 67.5 µM (inactive)
GI50 (KM-20L2): > 100 µM (inactive)
GI50 (KM12): > 100 µM (inactive)
GI50 (HT-29): > 100 µM (inactive)
GI50 (CCRF-CEM): > 100 µM (inactive)
GI50 (DMS-273): > 100 µM (inactive)
GI50 (M19-MEL): > 100 µM (inactive)
GI50 (SN12C): > 100 µM (inactive)
GI50 (SK-MEL-5): > 100 µM (inactive)
GI50 (HOP-92): > 100 µM (inactive)
GI50 (UACC-257): > 100 µM (inactive)
GI50 (HCC 2998): > 100 µM (inactive)
GI50 (SF-539): > 100 µM (inactive)
GI50 (SK-MEL-2): > 100 µM (inactive)
GI50 (UACC-62): > 100 µM (inactive)
GI50 (IGROV-1): > 100 µM (inactive)
GI50 (LXFL 529): > 100 µM (inactive)
GI50 (SK-MEL-28): > 100 µM (inactive)
GI50 (786-0): > 100 µM (inactive)
GI50 (HCT-15): > 100 µM
GI50 (SK-OV-3): > 100 µM (inactive)
GI50 (RPMI-8226): > 100 µM (inactive)
GI50 (OVCAR-3): > 100 µM (inactive)
GI50 (CAKI-1): > 100 µM (inactive)
GI50 (COLO 205): > 100 µM (inactive)
GI50 (SW-620): > 100 µM (inactive)
GI50 (M14): > 100 µM (inactive)
GI50 (SNB-19): > 100 µM (inactive)
GI50 (NCI-H460): > 100 µM (inactive)
GI50 (UO-31): > 100 µM (inactive)
GI50 (A498): > 100 µM (inactive)
GI50 (LOX IMVI): > 100 µM (inactive)
GI50 (NCI-H522): > 100 µM (inactive)
GI50 (Malme-3M): > 100 µM (inactive)

C[C@@H](NS(=O)(=O)c1ccc(NC(=O)c2ccccc2)cc1)C(=O)O
GI50 (HL-60): > 100 µM (inactive)
GI50 (EKVX): > 100 µM (inactive)
GI50 (K562): > 100 µM (inactive)
GI50 (SF-295): > 100 µM (inactive)
GI50 (TK-10): > 100 µM (inactive)
GI50 (DLD-1): > 100 µM (inactive)
GI50 (ACHN): > 100 µM (inactive)
GI50 (RXF 393): > 100 µM (inactive)
GI50 (HOP-18): > 100 µM (inactive)
GI50 (MOLT-4): > 100 µM (inactive)
GI50 (NCI-H23): > 100 µM (inactive)
GI50 (OVCAR-8): > 100 µM (inactive)
GI50 (OVCAR-4): > 100 µM (inactive)
GI50 (OVCAR-5): > 100 µM (inactive)
GI50 (U-251): > 100 µM (inactive)
GI50 (A549): > 100 µM (inactive)
GI50 (SNB-75): > 100 µM (inactive)
GI50 (SF-268): > 100 µM (inactive)
GI50 (XF498): > 100 µM (inactive)
GI50 (KM-20L2): > 100 µM (inactive)
GI50 (KM12): > 100 µM (inactive)
GI50 (HT-29): > 100 µM (inactive)
GI50 (CCRF-CEM): > 100 µM (inactive)
GI50 (DMS-273): > 100 µM (inactive)
GI50 (M19-MEL): > 100 µM (inactive)
GI50 (SN12C): > 100 µM (inactive)
GI50 (SK-MEL-5): > 100 µM (inactive)
GI50 (HOP-92): > 100 µM (inactive)
GI50 (UACC-257): > 100 µM (inactive)
GI50 (HCC 2998): > 100 µM (inactive)
GI50 (SF-539): > 100 µM (inactive)
GI50 (SK-MEL-2): > 100 µM (inactive)
GI50 (UACC-62): > 100 µM (inactive)
GI50 (IGROV-1): > 100 µM (inactive)
GI50 (LXFL 529): > 100 µM (inactive)
GI50 (SK-MEL-28): > 100 µM (inactive)
GI50 (786-0): > 100 µM (inactive)
GI50 (HCT-15): > 100 µM
GI50 (SK-OV-3): > 100 µM (inactive)
GI50 (RPMI-8226): > 100 µM (inactive)
GI50 (OVCAR-3): > 100 µM (inactive)
GI50 (CAKI-1): > 100 µM (inactive)
GI50 (COLO 205): > 100 µM (inactive)
GI50 (SW-620): > 100 µM (inactive)
GI50 (M14): > 100 µM (inactive)
GI50 (SNB-19): > 100 µM (inactive)
GI50 (NCI-H460): > 100 µM (inactive)
GI50 (UO-31): > 100 µM (inactive)
GI50 (A498): > 100 µM (inactive)
GI50 (LOX IMVI): > 100 µM (inactive)
GI50 (NCI-H522): > 100 µM (inactive)
GI50 (Malme-3M): > 100 µM (inactive)
